Results taken from patent US20240279218A1 (Hoffmann-La Roche Inc., priority 2016, published 2024).
Read-outs that look alike come from different tables or passages of the source.

Key:
h-GABA-A α5β3γ2 [1] = target: T1, h-GABA-A α5β3γ2 (Homo sapiens (Human), UniProt P18507+P31644); assay: [3H]flumazenil competition binding assay, membranes of HEK293 cells expressing human GABAA receptors
Method: The affinity of compounds at GABAA receptor subtypes was measured by competition for [3H]flumazenil (85 Ci/mmol; Roche) binding to HEK293 cells expressing rat (stably transfected) or human (transiently transfected) receptors of composition α1β3γ2, α2β3γ2, α3β3γ2 and α5β3γ2.
Cell pellets were suspended in Krebs-tris buffer (4.8 mM KCl, 1.2 mM CaCl2, 1.2 mM MgCl2, 120 mM NaCl, 15 mM Tris; pH 7.5; binding assay buffer), homogenized by polytron for ca. 20 sec on ice and centrifuged for 60 min at 4° C. (50000 g; Sorvall, rotor: SM24=20000 rpm). The cell pellets were resuspended in Krebs-tris buffer and homogenized by polytron for ca. 15 sec on ice. Protein was measured (Bradford method, Bio-Rad) and aliquots of 1 mL were prepared and stored at −80° C.
Assays were incubated to equilibrium for 1 hour at 4° C. and harvested onto GF/C uni-filters (Packard) by filtration using a Packard harvester and washing with ice-cold wash buffer (50 mM Tris; pH 7.5). After drying, filter-retained radioactivity was detected by liquid scintillation counting. Ki values were calculated using Excel-Fit (Microsoft) and are the means of two determinations.

h-GABA-A α5β3γ2 [2] = target: T1, h-GABA-A α5β3γ2; assay: Two-electrode voltage clamp electrophysiology in Xenopus oocytes expressing GABAA receptors, modulation of GABA EC20 current; assay type: cell-based
Method: Xenopus laevis oocytes at maturation stages V-VI were used for the expression of cloned mRNA encoding GABAA receptor subunits. Oocytes ready for RNA micro-injection were bought from Ecocyte, Castrop-Rauxel, Germany and stored in modified Barth's medium (composition in mM: NaCl 88, KCl 1, NaHCO32.4, HEPES 10, MgSO4 0.82, CaNO3 0.33, CaCl2) 0.33, pH=7.5) at 20° C. until the experiment.
Oocytes were plated in 96-well plates to be used in an automated instrument (Robo-ocyte, MultiChannelSystems, Reutlingen, Germany) for microinjection and electrophysiological recordings. Approximately 50 nl of an aqueous solution containing the RNA transcripts for the subunits of the desired GABAA receptor was injected into each oocyte. RNA concentrations ranged between 0.3 and 16 ng/μl/subunit and were adjusted in pilot experiments to obtain GABA responses of a suitable size and a maximal effect of the reference modulator, Beta-CCM (β-CCM), a betacarboline negative allosteric modulator (NAM) at the GABAA receptor benzodiazepine (BZD) binding site or Midazolam, a benzodiazepine positive allosteric modulator (PAM) at the GABAA receptor benzodiazepine (BZD) binding site. The concentration of the γ2 subunit encoding RNA usually was 5-to 10-fold higher than the RNAs encoding the other subunits. Oocytes were kept in modified Barth's medium (composition in mM: NaCl 88, KCl 1, NaHCO3 4, HEPES 10, MgSO4 0.82, CaNO3 0.33, CaCl2 0.33, pH=7.5) at 20° C. until the experiment.
Electrophysiological experiments were performed on days 3 to 5 after the micro-injection of mRNA. During the experiment the oocytes were constantly superfused by a solution containing (in mM) NaCl 90, KCl 1, HEPES 5, MgCl2 1, CaCl2 1 (pH 7.4). Oocytes were impaled by two glass microelectrodes (resistance: 0.4 MΩ) which were filled with a solution containing KCl 1M+K-acetate 1.5 M and voltage-clamped to −80 mV. The recordings were performed at room temperature using the Roboocyte two-electrode voltage clamp system (Multichannelsystem). After an initial equilibration period of 1.5 min GABA was added for 1.5 min at a concentration evoking approximately 20% of a maximal current response (EC20). After another rest interval of 2.5 min GABA was again added evoking a response of similar amplitude and shape. […] Current traces were recorded at a digitization rate of 10 Hz during and shortly before and after the GABA application.
Each compound and concentration was tested on at least 3 oocytes.
For the analysis, the digitized current traces of the first and second GABA response were superimposed and, if necessary, rescaled to equal maximal amplitudes. The ratio between the two responses during the time interval of test compound application was calculated point by point. The extremum of the resulting “ratio trace” was taken as the efficacy (“Fold increase”) of the compound expressed as “% modulation of GABA EC20” (100*(Fold increase−1)).

[3] = displacement of [3H]flumazenil 0.5 nM, HEK293 cells expressing human receptors, mean of two determinations, read-out: Ki h-GABA-A α5β3γ2
[4] = % modulation of GABA EC20 = 100*(Fold increase−1), Xenopus oocytes
[5] = Xenopus oocytes, GABA EC20, test compound at approx. 30 fold its Ki
[6] = positive control, maximally effective concentration, 3-6 oocytes per plate

Compound: Cc1ccc(-c2noc(C)c2COc2ccc(C(=O)N[C@H]3C[C@@H](OC(F)F)C3)nn2)cn1 [Example 173, cis-N-(3-(difluoromethoxy)cyclobutyl)-6-((5-methyl-3-(6-methylpyridin-3-yl)isoxazol-4-yl)methoxy)pyridazine-3-carboxamide]
- Ki (h-GABA-A α5β3γ2 [1]; [3]): 15.6 nM
- Efficacy (GABA) % (h-GABA-A α5β3γ2 [2]; [4]): 68%
- Fold increase h-GABA-A α5β3γ2 oocyte (h-GABA-A α5β3γ2 [2]; [5]): 1.68

Compound: Cc1ccc(-c2noc(C)c2COc2ccc(C(=O)N[C@H]3C[C@@H](OCC(F)F)C3)nn2)cn1 [Example 169, cis-N-3-((2,2-difluoroethoxy)cyclobutyl)-6-((5-methyl-3-(6-methylpyridin-3-yl)isoxazol-4-yl)methoxy)pyridazine-3-carboxamide]
- Ki (h-GABA-A α5β3γ2 [1]; [3]): 18.9 nM
- Efficacy (GABA) % (h-GABA-A α5β3γ2 [2]; [4]): 66%
- Fold increase h-GABA-A α5β3γ2 oocyte (h-GABA-A α5β3γ2 [2]; [5]): 1.66

Compound: Cc1ccc(-c2noc(C3CC3)c2COc2ccc(C(=O)NC3CCOCC3)nn2)cn1 [Example 183, 6-((5-cyclopropyl-3-(6-methylpyridin-3-yl)isoxazol-4-yl)methoxy)-N-(tetrahydropyran-4-yl)pyridazine-3-carboxamide]
- Ki (h-GABA-A α5β3γ2 [1]; [3]): 56.7 nM
- Efficacy (GABA) % (h-GABA-A α5β3γ2 [2]; [4]): 213%
- Fold increase h-GABA-A α5β3γ2 oocyte (h-GABA-A α5β3γ2 [2]; [5]): 3.13

Compound: Cc1ccc(-c2noc(C)c2COc2cc3c(cn2)C(=O)N(C2CCS(=O)(=O)CC2)C3)cn1 [Example 91, 2-(1,1-dioxothian-4-yl)-6-((5-methyl-3-(6-methylpyridin-3-yl)-1,2-oxazol-4-yl)methoxy)-1H-pyrrolo[3,4-c]pyridin-3-one]
- Ki (h-GABA-A α5β3γ2 [1]; [3]): 5.5 nM
- Efficacy (GABA) % (h-GABA-A α5β3γ2 [2]; [4]): 140%
- Fold increase h-GABA-A α5β3γ2 oocyte (h-GABA-A α5β3γ2 [2]; [5]): 2.4

Compound: Cc1ccc(-c2noc(C)c2COc2cnc(C(=O)NCCCC(F)(F)F)cn2)cn1 [Example 115, 5-((5-methyl-3-(6-methylpyridin-3-yl)isoxazol-4-yl)methoxy)-N-(4,4,4-trifluorobutyl)pyrazine-2-carboxamide]
- Ki (h-GABA-A α5β3γ2 [1]; [3]): 51.6 nM
- Efficacy (GABA) % (h-GABA-A α5β3γ2 [2]; [4]): 139%
- Fold increase h-GABA-A α5β3γ2 oocyte (h-GABA-A α5β3γ2 [2]; [5]): 2.39

Compound: Cc1onc(-c2cccnc2)c1COc1ccc(C(=O)NC2CCOCC2)nn1 [RE-A, 6-((5-methyl-3-(3-pyridyl)isoxazol-4-yl)methoxy)-N-tetrahydropyran-4-yl-pyridazine-3-carboxamide, reference compound]
- Ki (h-GABA-A α5β3γ2 [1]; reference compounds, GABAA receptor α5β3γ2, read-out: Ki α5-human): 65 nM
- Efficacy (GABA) % (h-GABA-A α5β3γ2 [2]; reference compounds, % modulation of GABA EC20): −3%
- Fold increase h-GABA-A α5β3γ2 oocyte (h-GABA-A α5β3γ2 [2]; reference compounds, GABAA α5β3γ2 overexpressing oocytes, GABA EC20): 0.97

Compound: Cc1ncc2n1-c1ccc(Cl)cc1C(c1ccccc1F)=NC2 [Midazolam, reference compound]
- Fold increase (h-GABA-A α5β3γ2 [2]; [6]): ~2.5
- potentiation of the GABA-induced current (h-GABA-A α5β3γ2 [2]; [6]): ~150%

Compound: Cc1ccc(-c2noc(C)c2COc2ccc(C(=O)NC3CCOC3)nn2)cn1 (racemic) [Example 45, (RS)-6-((5-methyl-3-(6-methylpyridin-3-yl)isoxazol-4-yl)methoxy)-N-(tetrahydrofuran-3-yl)pyridazine-3-carboxamide]
- Efficacy (GABA) % (h-GABA-A α5β3γ2 [2]; [4]): 84%
- Fold increase h-GABA-A α5β3γ2 oocyte (h-GABA-A α5β3γ2 [2]; [5]): 1.84

Compound: Cc1ccc(-c2noc(C)c2COc2ccc(C(=O)N[C@@H]3CC[C@@H](O)C3)nn2)cn1 (racemic) [Example 152, N-((1RS,3RS)-3-hydroxycyclopentyl)-6-((5-methyl-3-(6-methylpyridin-3-yl)isoxazol-4-yl)methoxy)pyridazine-3-carboxamide]
- Efficacy (GABA) % (h-GABA-A α5β3γ2 [2]; [4]): 85%
- Fold increase h-GABA-A α5β3γ2 oocyte (h-GABA-A α5β3γ2 [2]; [5]): 1.85

Compound: Cc1ccc(-c2noc(C)c2COc2ccc(C(=O)NC3CCOC(C)(C)C3)nn2)cn1 (racemic) [Example 58, (RS)—N-(2,2-dimethyltetrahydropyran-4-yl)-6-((5-methyl-3-(6-methylpyridin-3-yl)isoxazol-4-yl)methoxy)pyridazine-3-carboxamide]
- Efficacy (GABA) % (h-GABA-A α5β3γ2 [2]; [4]): 71%
- Fold increase h-GABA-A α5β3γ2 oocyte (h-GABA-A α5β3γ2 [2]; [5]): 1.71

Compound: Cc1onc(-c2ccc(Cl)nc2)c1COc1ccc(C(=O)N[C@H]2CCOC2)nn1 [Example 160, (S)-6-((3-(6-chloropyridin-3-yl)-5-methylisoxazol-4-yl)methoxy)-N-(tetrahydrofuran-3-yl)pyridazine-3-carboxamide]
- Efficacy (GABA) % (h-GABA-A α5β3γ2 [2]; [4]): 42%

Compound: Cc1ccc(-c2noc(C)c2COc2ccc(C(=O)NC(C)(C)CCS(C)(=O)=O)nn2)cn1 [Example 80, 6-((5-methyl-3-(6-methylpyridin-3-yl)isoxazol-4-yl)methoxy)-N-(2-methyl-4-(methylsulfonyl)butan-2-yl)pyridazine-3-carboxamide]
- Efficacy (GABA) % (h-GABA-A α5β3γ2 [2]; [4]): 108%
- Fold increase h-GABA-A α5β3γ2 oocyte (h-GABA-A α5β3γ2 [2]; [5]): 2.08

Compound: Cc1ccc(-c2noc(C)c2COc2ccc(C(=O)NC3(C)CCOC3)nn2)cn1 (racemic) [Example 75]
- Efficacy (GABA) % (h-GABA-A α5β3γ2 [2]; [4]): 89%
- Fold increase h-GABA-A α5β3γ2 oocyte (h-GABA-A α5β3γ2 [2]; [5]): 1.89

Compound: Cc1ccc(-c2noc(C)c2COc2ccc(C(=O)N3C[C@@H]4C[C@H]3CO4)nn2)cn1 [Example 151, (1S,4S)-2-oxa-5-azabicyclo[2.2.1]heptan-5-yl(6-((5-methyl-3-(6-methylpyridin-3-yl)isoxazol-4-yl)methoxy)pyridazin-3-yl)methanone]
- Efficacy (GABA) % (h-GABA-A α5β3γ2 [2]; [4]): 68%

Compound: Cc1ccc(-c2noc(C)c2COc2ccc(C(=O)NC3CCS(=O)(=O)C3)nn2)cn1 (racemic) [Example 36, (RS)—N-(1,1-dioxothiolan-3-yl)-6-((5-methyl-3-(6-methylpyridin-3-yl)-1,2-oxazol-4-yl)methoxy)pyridazine-3-carboxamide]
- Efficacy (GABA) % (h-GABA-A α5β3γ2 [2]; [4]): 65%
- Fold increase h-GABA-A α5β3γ2 oocyte (h-GABA-A α5β3γ2 [2]; [5]): 1.65

Compound: Cc1ccc(-c2nocc2COc2ccc(C(=O)NC3CCOCC3)cn2)cn1 [Example 44, 6-((3-(6-methyl-3-pyridyl)isoxazol-4-yl)methoxy)-N-tetrahydropyran-4-yl-pyridine-3-carboxamide]
- Efficacy (GABA) % (h-GABA-A α5β3γ2 [2]; [4]): 54%

Compound: Cc1ccc(-c2noc(C)c2COc2ccc(C(=O)NC3CCCOCC3)nn2)cn1 (racemic) [Example 187, (RS)-6-((5-methyl-3-(6-methylpyridin-3-yl)isoxazol-4-yl)methoxy)-N-(oxepan-4-yl)pyridazine-3-carboxamide]
- Efficacy (GABA) % (h-GABA-A α5β3γ2 [2]; [4]): 88%
- Fold increase h-GABA-A α5β3γ2 oocyte (h-GABA-A α5β3γ2 [2]; [5]): 1.88

Compound: CO[C@@H]1CC[C@@H](NC(=O)c2ccc(OCc3c(-c4ccc(C)nc4)noc3C)nn2)C1 (racemic) [Example 166, trans-N-((1RS,3RS)-3-methoxycyclopentyl)-6-((5-methyl-3-(6-methylpyridin-3-yl)isoxazol-4-yl)methoxy)pyridazine-3-carboxamide]
- Efficacy (GABA) % (h-GABA-A α5β3γ2 [2]; [4]): 70%
- Fold increase h-GABA-A α5β3γ2 oocyte (h-GABA-A α5β3γ2 [2]; [5]): 1.7

Compound: O=C(N[C@H]1CCOC1)c1ccc(OCc2c(-c3ccc(Cl)nc3)noc2C2CC2)nn1 [Example 179, (S)-6-((3-(6-chloropyridin-3-yl)-5-cyclopropylisoxazol-4-yl)methoxy)-N-(tetrahydrofuran-3-yl)pyridazine-3-carboxamide]
- Efficacy (GABA) % (h-GABA-A α5β3γ2 [2]; [4]): 82%

Compound: COC(=O)c1cc2c(cn1)[nH]c1ccccc12 [β-CCM, Beta-CCM, reference compound]
- Fold increase (h-GABA-A α5β3γ2 [2]; [6]): ~0.5
- inhibition of the GABA-evoked current (h-GABA-A α5β3γ2 [2]; [6]): ~50%

Compound: Cc1ccc(-c2noc(C)c2COc2ccc(C(=O)NC(C)C(F)(F)F)nn2)cn1 (racemic) [Example 34, (RS)-6-((5-methyl-3-(6-methylpyridin-3-yl)isoxazol-4-yl)methoxy)-N-(1,1,1-trifluoropropan-2-yl)pyridazine-3-carboxamide]
- Efficacy (GABA) % (h-GABA-A α5β3γ2 [2]; [4]): 84%
- Fold increase h-GABA-A α5β3γ2 oocyte (h-GABA-A α5β3γ2 [2]; [5]): 1.84
